Measurements reported in paper PMC10605010, “Immunotechniques for the Group Determination of Macrolide Antibiotics Traces in the Environment Using a Volume-Mediated Sensitivity Enhancement Strategy” (Biosensors, 2023).
≈ marks a conversion by molar mass, not a printed value.

How the values were obtained:
[1] = system: anti-BSA-cmoCLA(ae) antibody; assay: PrG-ELISA, self-assembly on coated protein G, direct competitive; assay type: binding, rabbit; conditions: 1.5 h, coating Ab 200 µL, standard/sample 250 µL
Source text: (§1) Another important consideration was the enhancement of the functional activity of antibodies through their oriented immobilization on the surface of polystyrene and its potential impact on the method sensitivity. This was achieved by interacting the adsorbed protein G with the antibody Fc fragments, allowing the antibody-binding fragments to remain spatially accessible. This interaction could be implemented in a step-by-step manner or as a result of self-assembly (Figure 4A). The step-by-step procedure involved the initial formation of a complex between the coated protein G and the antibody (PrG-Ab), followed by a competitive assay step. An alternative self-assembly method implied the competitive interaction of antibody with an analyte (sample) and a tracer in the solution with simultaneous binding to the coated protein G (PrG).

[2] = system: anti-BSA-cmoCLA(ae) antibodies; set-up: method as in PMID 25256165; conditions: coating antigen GEL-cmoCLA(ae), homologous; cited from earlier work
[3] = system: antibody, immunogen Commercial; set-up: method as in doi:10.1007/s12161-015-0130-x; conditions: milk; cited from earlier work
[4] = system: coated anti-BSA-cmoCLA(ae) antibody; assay: Direct competitive antibody-coated ELISA (dcELISA) with HRP-aecAZI tracer; assay type: binding, rabbit; conditions: 1 h
Source text: To implement these assay formats, the IgG fraction was first isolated from antiserum via the double precipitation method using caprylic acid and ammonium sulfate, described in detail in [22]. The principle of the assays is based on competition between analyte and enzyme-labeled antigen (HRP-aecAZI) for binding to an antibody coated on the plate (dcELISA) or coupled covalently to Sepharose beads. The latter immunosorbent was used in the immunobeads assay (IBA) and immunofiltration assay (IFA).
dcELISA plate format. The direct competitive antibody-coated ELISA format was carried out in accordance with the generally accepted procedure. The antibody coated on polystyrene plates could capture the free analyte from the tested sample and enzyme-labeled hapten in a competitive manner. The sequence of manipulations corresponded to those described for a similar format earlier. The role of the volume ratios between the standard (25–275 µL) and HRP-aecAZI (25–175 µL) on the sensitivity of the assay was studied in this work.
As a result of interactions between antibody and a number of coating antigens, we have identified a preferred hapten and a rational antigen design for the most sensitive and broad-specific detection. Since the aecAZI hapten conjugated to the carrier via a zero-length arm yielded the desired assay performance, we prepared the same design enzyme-labeled hapten for the direct competitive assay format. […] Thus, a direct competitive assay format was optimized and established based on coated anti-BSA-cmoCLA(ae) antibody and HRP-aecAZI × 3 as a tracer.

[5] = system: antibody to immunogen BSA-cmoERY(ma); conditions: milk; ERY = 100; cited from earlier work
[6] = system: anti-BSA-cmoCLA(ae) antibody; assay: PrG-Ab-ELISA, step-by-step oriented antibody coating via protein G, direct competitive; assay type: binding, rabbit; conditions: 0.5 h, coating Ab 200 µL, standard/sample 250 µL
Source text: as §1

[7] = coating Ab 100 µL, standard/sample 25 µL
[8] = coating Ab 100 µL, standard/sample 50 µL
[9] = coating Ab 100 µL, standard/sample 100 µL
[10] = coating Ab 100 µL, standard/sample 200 µL
[11] = coating Ab 100 µL, standard/sample 275 µL
[12] = coating Ab 200 µL, standard/sample 275 µL
[13] = coating Ab 300 µL, standard/sample 275 µL

CC[C@H]1OC(=O)[C@H](C)[C@@H](O[C@H]2C[C@@](C)(OC)[C@@H](O)[C@H](C)O2)[C@H](C)[C@@H](O[C@@H]2O[C@H](C)C[C@H](N(C)C)[C@H]2O)[C@](C)(O)C[C@@H](C)C(=O)[C@H](C)[C@@H](O)[C@]1(C)O [ERY, Erythromycin]
IC10 (LOD) [1]: 0.007 ng/mL (≈ 0.00954 nM)
IC20-IC80 (working range) [1]: 0.015 to 0.199 ng/mL
IC50 [1]: 0.055 ng/mL (≈ 0.0749 nM)
IC50 [2]: 0.20 ng/mL (≈ 0.273 nM)
CR [3]: 100%
LOD [3]: ni//5 ng/mL
IC10 (LOD) [4, 7]: 0.04 ng/mL (≈ 0.0545 nM)
IC20-IC80 (working range) [4, 7]: 0.097 to 0.907 ng/mL
IC50 [4, 7]: 0.31 ng/mL (≈ 0.422 nM)
IC10 (LOD) [4, 8]: 0.04 ng/mL (≈ 0.0545 nM)
IC20-IC80 (working range) [4, 8]: 0.085 to 0.565 ng/mL
IC50 [4, 8]: 0.23 ng/mL (≈ 0.313 nM)
IC10 (LOD) [4, 9]: 0.008 ng/mL (≈ 0.0109 nM)
IC20-IC80 (working range) [4, 9]: 0.037 to 0.400 ng/mL
IC50 [4, 9]: 0.14 ng/mL (≈ 0.191 nM)
IC10 (LOD) [4, 10]: 0.011 ng/mL (≈ 0.015 nM)
IC20-IC80 (working range) [4, 10]: 0.029 to 0.253 ng/mL
IC50 [4, 10]: 0.098 ng/mL (≈ 0.134 nM)
IC10 (LOD) [4, 11]: 0.024 ng/mL (≈ 0.0327 nM)
IC20-IC80 (working range) [4, 11]: 0.043 to 0.184 ng/mL
IC50 [4, 11]: 0.091 ng/mL (≈ 0.124 nM)
IC10 (LOD) [4, 12]: 0.002 ng/mL (≈ 0.00273 nM)
IC20-IC80 (working range) [4, 12]: 0.008 to 0.119 ng/mL
IC50 [4, 12]: 0.034 ng/mL (≈ 0.0463 nM)
IC10 (LOD) [4, 13]: 0.006 ng/mL (≈ 0.00818 nM)
IC20-IC80 (working range) [4, 13]: 0.012 to 0.119 ng/mL
IC50 [4, 13]: 0.040 ng/mL (≈ 0.0545 nM)
CR [5]: 100%
IC10 (LOD) [6]: 0.002 ng/mL (≈ 0.00273 nM)
IC20-IC80 (working range) [6]: 0.006 to 0.054 ng/mL
IC50 [6]: 0.020 ng/mL (≈ 0.0273 nM)
